Measurements from PMC12679550 (ACS Chemical Neuroscience, 2025).
Several values for one entry are separate records, joined by “and”; a condition that tells them apart may be missing. Equal values may be shown once. Entries after “also recorded” stand apart in the source; their conditions may differ. Read-outs that look alike come from different tables or passages of the source.

Columns and labels:
rat α2AR [1] = target: T1, rat α2AR (Rattus norvegicus, UniProt P22909); settings: agonist mode; HEK293 cells; Figure S2
T1 sequence (P22909 1-465): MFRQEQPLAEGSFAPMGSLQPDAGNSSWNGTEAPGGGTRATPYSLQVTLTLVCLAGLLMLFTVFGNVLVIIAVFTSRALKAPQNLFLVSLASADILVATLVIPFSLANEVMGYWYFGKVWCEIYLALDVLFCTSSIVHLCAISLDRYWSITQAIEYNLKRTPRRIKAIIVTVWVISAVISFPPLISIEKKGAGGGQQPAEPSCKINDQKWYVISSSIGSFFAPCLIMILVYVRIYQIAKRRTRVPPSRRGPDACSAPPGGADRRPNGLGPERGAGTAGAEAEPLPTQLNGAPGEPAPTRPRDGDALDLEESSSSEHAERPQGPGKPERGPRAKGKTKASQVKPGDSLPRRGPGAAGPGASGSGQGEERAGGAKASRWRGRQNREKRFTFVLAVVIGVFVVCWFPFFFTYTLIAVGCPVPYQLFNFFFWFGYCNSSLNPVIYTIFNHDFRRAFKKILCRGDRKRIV

α2AR [2] = target: T2, α2AR (Homo sapiens, UniProt P08913)
T2 sequence (P08913 1-465): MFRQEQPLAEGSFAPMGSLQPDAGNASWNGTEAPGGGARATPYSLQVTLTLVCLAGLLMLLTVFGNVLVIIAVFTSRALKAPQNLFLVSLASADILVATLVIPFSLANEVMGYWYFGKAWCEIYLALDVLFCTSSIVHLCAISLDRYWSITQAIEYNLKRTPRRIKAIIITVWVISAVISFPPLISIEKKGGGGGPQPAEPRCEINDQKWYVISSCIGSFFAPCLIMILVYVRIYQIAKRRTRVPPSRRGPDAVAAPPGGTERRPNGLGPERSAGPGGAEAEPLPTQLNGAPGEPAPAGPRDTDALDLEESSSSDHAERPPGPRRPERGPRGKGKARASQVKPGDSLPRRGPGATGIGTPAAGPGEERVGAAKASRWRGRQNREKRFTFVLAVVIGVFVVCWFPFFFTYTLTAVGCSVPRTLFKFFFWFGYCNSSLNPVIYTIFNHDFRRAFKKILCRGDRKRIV

N-type Ca2+ channels = target: T3, N-type Ca2+ channels (Rattus norvegicus, UniProt Q02294); test: Eurofins Cerep radioligand binding screen; settings: rat cerebral cortex; Figure S6
T3 construct: Eurofins Cerep (contract screen)
T3 sequence (Q02294 whole entry): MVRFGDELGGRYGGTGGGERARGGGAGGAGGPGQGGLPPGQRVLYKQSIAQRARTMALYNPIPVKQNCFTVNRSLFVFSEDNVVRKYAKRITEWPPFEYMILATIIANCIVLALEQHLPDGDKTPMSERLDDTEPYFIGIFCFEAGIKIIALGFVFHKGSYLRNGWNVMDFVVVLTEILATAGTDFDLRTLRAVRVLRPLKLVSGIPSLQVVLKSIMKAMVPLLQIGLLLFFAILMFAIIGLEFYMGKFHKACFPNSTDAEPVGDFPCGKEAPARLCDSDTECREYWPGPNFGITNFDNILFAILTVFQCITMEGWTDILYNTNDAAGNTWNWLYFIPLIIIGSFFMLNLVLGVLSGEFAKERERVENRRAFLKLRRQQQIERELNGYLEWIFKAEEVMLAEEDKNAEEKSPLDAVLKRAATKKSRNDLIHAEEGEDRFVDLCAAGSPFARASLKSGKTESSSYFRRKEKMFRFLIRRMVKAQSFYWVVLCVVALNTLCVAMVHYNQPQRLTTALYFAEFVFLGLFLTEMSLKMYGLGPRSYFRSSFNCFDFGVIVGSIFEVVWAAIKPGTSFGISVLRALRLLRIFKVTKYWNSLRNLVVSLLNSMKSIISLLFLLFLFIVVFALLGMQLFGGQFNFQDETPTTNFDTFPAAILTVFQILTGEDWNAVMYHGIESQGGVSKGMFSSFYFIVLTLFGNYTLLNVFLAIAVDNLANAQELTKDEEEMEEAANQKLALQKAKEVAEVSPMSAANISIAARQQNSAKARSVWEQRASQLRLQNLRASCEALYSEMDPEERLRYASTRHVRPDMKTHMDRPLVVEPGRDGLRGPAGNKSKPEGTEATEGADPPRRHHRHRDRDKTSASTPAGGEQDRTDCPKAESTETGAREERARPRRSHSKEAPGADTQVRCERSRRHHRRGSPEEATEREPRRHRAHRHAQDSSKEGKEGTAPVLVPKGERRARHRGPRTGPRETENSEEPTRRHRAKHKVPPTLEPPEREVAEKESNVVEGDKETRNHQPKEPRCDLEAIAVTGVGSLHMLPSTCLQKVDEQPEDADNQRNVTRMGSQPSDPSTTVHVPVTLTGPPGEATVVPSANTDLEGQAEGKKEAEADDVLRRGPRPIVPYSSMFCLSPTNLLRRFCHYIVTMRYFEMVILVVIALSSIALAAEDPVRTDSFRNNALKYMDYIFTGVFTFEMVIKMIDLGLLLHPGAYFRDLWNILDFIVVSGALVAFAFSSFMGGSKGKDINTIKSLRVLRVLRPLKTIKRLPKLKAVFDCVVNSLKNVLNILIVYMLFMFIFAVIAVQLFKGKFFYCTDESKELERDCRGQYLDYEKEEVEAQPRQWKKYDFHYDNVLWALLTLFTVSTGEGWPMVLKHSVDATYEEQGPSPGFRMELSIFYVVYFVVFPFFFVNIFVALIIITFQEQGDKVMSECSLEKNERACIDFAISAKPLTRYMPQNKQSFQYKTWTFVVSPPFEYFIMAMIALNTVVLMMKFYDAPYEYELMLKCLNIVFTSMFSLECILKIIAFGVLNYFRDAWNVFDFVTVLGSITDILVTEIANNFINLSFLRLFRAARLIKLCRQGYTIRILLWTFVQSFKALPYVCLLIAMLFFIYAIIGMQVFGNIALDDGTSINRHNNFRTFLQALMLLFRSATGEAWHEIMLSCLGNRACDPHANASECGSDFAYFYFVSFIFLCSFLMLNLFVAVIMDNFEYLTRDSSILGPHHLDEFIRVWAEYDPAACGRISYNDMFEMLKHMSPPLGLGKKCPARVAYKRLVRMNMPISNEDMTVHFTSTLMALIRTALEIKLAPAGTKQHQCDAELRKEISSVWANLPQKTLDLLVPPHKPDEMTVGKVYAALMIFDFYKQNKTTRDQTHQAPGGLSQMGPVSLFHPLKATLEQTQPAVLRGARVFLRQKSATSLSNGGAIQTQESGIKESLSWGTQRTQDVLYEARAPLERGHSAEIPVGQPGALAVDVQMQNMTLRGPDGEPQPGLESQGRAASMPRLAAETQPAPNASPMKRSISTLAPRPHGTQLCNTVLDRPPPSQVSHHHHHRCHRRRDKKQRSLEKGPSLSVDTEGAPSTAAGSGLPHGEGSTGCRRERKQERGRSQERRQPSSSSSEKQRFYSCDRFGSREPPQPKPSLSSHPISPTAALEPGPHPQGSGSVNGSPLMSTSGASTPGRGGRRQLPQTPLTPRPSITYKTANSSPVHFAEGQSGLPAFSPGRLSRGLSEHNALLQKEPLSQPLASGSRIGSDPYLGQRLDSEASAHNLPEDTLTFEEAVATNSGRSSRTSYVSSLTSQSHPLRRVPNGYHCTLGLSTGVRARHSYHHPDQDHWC
T3 sequence (P54287 whole entry partner): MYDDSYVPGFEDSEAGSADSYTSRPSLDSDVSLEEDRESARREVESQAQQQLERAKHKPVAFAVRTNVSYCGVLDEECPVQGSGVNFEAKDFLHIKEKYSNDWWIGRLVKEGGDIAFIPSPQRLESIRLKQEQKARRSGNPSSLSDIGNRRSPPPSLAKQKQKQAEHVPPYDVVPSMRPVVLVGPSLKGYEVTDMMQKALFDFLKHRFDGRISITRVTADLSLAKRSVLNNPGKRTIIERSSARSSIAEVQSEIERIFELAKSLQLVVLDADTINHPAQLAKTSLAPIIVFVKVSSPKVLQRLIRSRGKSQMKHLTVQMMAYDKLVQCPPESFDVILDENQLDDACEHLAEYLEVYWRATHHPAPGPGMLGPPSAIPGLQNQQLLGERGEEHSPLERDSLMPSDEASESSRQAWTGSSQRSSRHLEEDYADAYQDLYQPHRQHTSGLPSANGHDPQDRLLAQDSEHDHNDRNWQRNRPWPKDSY
T3 sequence (P54290 25-944 partner limits assumed): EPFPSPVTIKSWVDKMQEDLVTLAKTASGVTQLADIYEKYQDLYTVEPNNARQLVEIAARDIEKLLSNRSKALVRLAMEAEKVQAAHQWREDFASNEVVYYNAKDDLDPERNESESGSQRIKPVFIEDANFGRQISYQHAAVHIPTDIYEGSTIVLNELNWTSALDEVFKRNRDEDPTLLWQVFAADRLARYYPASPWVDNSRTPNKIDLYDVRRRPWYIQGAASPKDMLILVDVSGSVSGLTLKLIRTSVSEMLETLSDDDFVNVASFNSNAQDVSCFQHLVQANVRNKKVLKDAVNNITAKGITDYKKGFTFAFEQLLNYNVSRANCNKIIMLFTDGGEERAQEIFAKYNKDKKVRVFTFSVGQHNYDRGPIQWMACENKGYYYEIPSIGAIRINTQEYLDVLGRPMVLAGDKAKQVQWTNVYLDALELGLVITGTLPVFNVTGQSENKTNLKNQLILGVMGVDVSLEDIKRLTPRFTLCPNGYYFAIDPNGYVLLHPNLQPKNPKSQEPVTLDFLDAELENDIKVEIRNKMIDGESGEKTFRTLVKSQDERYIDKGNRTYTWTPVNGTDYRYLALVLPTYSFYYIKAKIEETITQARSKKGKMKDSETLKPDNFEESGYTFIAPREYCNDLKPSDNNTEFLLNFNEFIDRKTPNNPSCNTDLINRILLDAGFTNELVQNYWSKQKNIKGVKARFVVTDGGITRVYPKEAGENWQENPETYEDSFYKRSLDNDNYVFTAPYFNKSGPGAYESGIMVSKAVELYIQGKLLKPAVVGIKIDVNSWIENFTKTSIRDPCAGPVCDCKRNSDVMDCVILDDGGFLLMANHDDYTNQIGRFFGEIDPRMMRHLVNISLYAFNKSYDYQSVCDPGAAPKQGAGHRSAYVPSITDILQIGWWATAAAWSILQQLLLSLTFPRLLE
T3 sequence (P54290 945-1091 partner limits assumed): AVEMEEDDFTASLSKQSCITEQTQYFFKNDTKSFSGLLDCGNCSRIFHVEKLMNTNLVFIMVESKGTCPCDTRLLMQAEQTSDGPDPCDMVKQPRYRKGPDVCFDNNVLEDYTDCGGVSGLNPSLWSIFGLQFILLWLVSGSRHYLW
Experimental: (§1) The compounds were screened at each target once, in duplicate, at 100 nM and 10 μM. […] The assay was valid if the reliability criteria, K i or IC50 values within 1/2 Log of historical values, were met. Radioligand binding assay methods were as previously described with only minor modifications , (see table in Supplementary Figure S4 for radioligands, protein sources, and assay test conditions). Briefly, cell membrane homogenates were incubated with either an antagonist or agonist radioligand in the absence or presence of the test compound in a buffer. A specific unlabeled agonist or antagonist at the target determined nonspecific binding. Following incubation, the samples were filtered rapidly under vacuum through glass fiber filters presoaked in a buffer and rinsed several times with an ice-cold buffer using a 48-sample or 96-sample cell harvester. Using a scintillation cocktail, the filters were counted for radioactivity in a scintillation counter. Compound binding was calculated as a percent inhibition of the binding of the radioactively labeled ligand specific for each target. Preparatory methods for enzyme inhibition assays were similar to radioligand binding assays. These assays involved using a known substrate, stimulus, and/or tracer, and detection methods included LANCE, fluorimetry, photometry, luminescence, or scintillation counting (see table in Supplementary Figure S4). Results of the screening assays showing an inhibition or stimulation higher than 50% were designated “hits” and considered to represent significant effects of the test compounds.

hERG potassium channels = target: T4, hERG potassium channels (Homo sapiens, UniProt Q12809); test: Eurofins Cerep radioligand binding screen; settings: 10 μM
T4 construct: Eurofins Cerep; host or cells: cell membrane homogenates
Experimental: as §1

β2-adrenoceptors = target: T5, β2-adrenoceptors (Homo sapiens, UniProt P07550); test: Eurofins Cerep radioligand binding screen; settings: 10 μM
T5 construct: Eurofins Cerep; host or cells: cell membrane homogenates
Experimental: as §1

D1-dopamine receptors = target: T6, D1-dopamine receptors (Homo sapiens, UniProt P21728); test: Eurofins Cerep radioligand binding screen; settings: 10 μM
T6 construct: Eurofins Cerep; host or cells: cell membrane homogenates
T6 sequence (P21728 whole entry): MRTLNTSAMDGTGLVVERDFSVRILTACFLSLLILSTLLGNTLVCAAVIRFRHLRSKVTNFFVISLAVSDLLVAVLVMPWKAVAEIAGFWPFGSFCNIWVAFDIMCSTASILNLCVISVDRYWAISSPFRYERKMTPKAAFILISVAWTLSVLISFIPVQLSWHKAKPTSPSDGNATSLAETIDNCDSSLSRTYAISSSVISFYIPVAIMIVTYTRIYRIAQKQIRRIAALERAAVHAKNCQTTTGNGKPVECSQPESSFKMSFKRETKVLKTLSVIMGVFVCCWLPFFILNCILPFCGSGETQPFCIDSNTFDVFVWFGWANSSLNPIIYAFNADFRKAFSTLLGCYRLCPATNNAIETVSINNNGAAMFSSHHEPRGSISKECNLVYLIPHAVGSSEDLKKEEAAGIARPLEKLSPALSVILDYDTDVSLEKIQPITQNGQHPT
Experimental: as §1

[3] = system: voltage-gated sodium channels; test: Eurofins Cerep radioligand binding screen; settings: 10 μM
Experimental: as §1

D2-dopamine receptors = target: T7, D2-dopamine receptors (Homo sapiens, UniProt P14416); test: Eurofins Cerep radioligand binding screen; settings: 10 μM
T7 construct: Eurofins Cerep; host or cells: cell membrane homogenates
Experimental: as §1

L-type Ca2+ channels = test: Eurofins Cerep radioligand binding screen; settings: rat cerebral cortex; Figure S6
Experimental: as §1

D3-dopamine receptors = target: T8, D3-dopamine receptors (Homo sapiens, UniProt P35462); test: Eurofins Cerep radioligand binding screen; settings: 10 μM
T8 construct: Eurofins Cerep; host or cells: cell membrane homogenates
Experimental: as §1

serotonin transporter = target: T9, serotonin transporter (Homo sapiens, UniProt P31645); test: Eurofins Cerep radioligand binding screen; settings: 10 μM
T9 construct: Eurofins Cerep; host or cells: cell membrane homogenates
T9 sequence (P31645 whole entry): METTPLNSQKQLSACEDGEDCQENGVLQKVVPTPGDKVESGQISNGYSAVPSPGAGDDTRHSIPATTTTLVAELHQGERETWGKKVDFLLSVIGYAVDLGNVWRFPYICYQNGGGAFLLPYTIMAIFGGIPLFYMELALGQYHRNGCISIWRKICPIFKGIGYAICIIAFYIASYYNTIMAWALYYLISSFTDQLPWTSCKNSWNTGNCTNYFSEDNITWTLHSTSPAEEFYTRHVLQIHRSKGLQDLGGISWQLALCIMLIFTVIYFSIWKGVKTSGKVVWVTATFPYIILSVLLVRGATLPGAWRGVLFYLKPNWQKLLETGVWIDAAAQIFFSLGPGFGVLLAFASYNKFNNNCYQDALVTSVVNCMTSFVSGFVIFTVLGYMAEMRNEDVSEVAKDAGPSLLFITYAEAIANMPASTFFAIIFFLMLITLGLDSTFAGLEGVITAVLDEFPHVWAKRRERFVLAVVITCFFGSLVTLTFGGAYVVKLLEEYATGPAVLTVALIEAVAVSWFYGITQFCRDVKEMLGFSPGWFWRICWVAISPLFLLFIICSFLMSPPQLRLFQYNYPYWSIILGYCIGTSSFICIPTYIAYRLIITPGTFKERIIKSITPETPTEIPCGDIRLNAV
Experimental: as §1

α2AR [4] = target: T2, α2AR; remark: listed apart in the source
rat α2AR [5] = target: T1, rat α2AR; settings: agonist mode; CHO-K1 cells
[6] = male mice, 165 mg/kg PO; cited from earlier work
α2AR [7] = target: T2, α2AR; remark: listed apart in the source

mitragynine
Effect on forskolin-induced cAMP, rat α2AR in HEK293 (rat α2AR [1]): no significant functional effects
Effect on forskolin-stimulated cAMP, human α2AR (α2AR [2]; agonist mode, CHO-K1 cells): did not impact forskolin-stimulated cAMP accumulation
Kb (α2AR [2]; read-out: Kb, antagonist, cAMP, human α2AR, antagonism of clonidine, Gaddum-Schild analysis of first plateau): 4.17 µM
Affinity at N-type Ca2+ channels (N-type Ca2+ channels): no appreciable affinity
Inhibition of radioligand binding, hERG potassium channels (hERG potassium channels): ~51%
Inhibition of specific radioligand binding, β2-adrenoceptors (β2-adrenoceptors): > 60%
Inhibition of radioligand binding, D1-dopamine receptors (D1-dopamine receptors): ~73%
Inhibition of radioligand binding, voltage-gated sodium channels [3]: ~71%
Inhibition of radioligand binding, D2-dopamine receptors (D2-dopamine receptors): ~70%
Affinity at L-type Ca2+ channels (L-type Ca2+ channels): no appreciable affinity
Inhibition of radioligand binding, D3-dopamine receptors (D3-dopamine receptors): ~57%
Inhibition of radioligand binding, serotonin transporter (serotonin transporter): ~51%
Kb (α2AR [4]; read-out: Kb, antagonist, β-arrestin, antagonist mode vs EC80 (0.01 μM) UK 14,304, Cheng–Prusoff): 5.01 µM
β-arrestin2 recruitment, agonist mode (α2AR [4]; α2AR-expressing CHO-K1 cells): did not recruit β-arrestin2
Effect on forskolin-stimulated cAMP, rat α2AR (rat α2AR [5]): did not decrease forskolin-stimulated cAMP accumulation
Peak brain concentration [6]: approximately 35 μg/g of wet brain tissue and ~88 μM
Activation of α2AR-Gαs(short) (α2AR [7]; Figure S1): did not activate α2AR–Gαs; also recorded: no effect
Activation of the seven Gαi/o-protein subtypes coupled to α2AR (α2AR [7]; concentrations up to 30 μM): did not activate any of the seven Gαi/o-protein subtypes
Activation of Gαq or Gα11 via α2ARs (α2AR [7]; data not shown): no effect
Kb (α2AR [7]; read-out: Kb, antagonist, αi1, α2AR-Gαi1, antagonism of clonidine, Gaddum-Schild): 5.65 µM
EC50, αgust (α2AR [7]; α2AR-Gαgust): inactive
EC50, αi2 (α2AR [7]; α2AR-Gαi2): inactive
EC50, αi3 (α2AR [7]; α2AR-Gαi3): inactive
EC50, αoA (α2AR [7]; α2AR-GαoA): inactive
EC50, αoB (α2AR [7]; α2AR-GαoB): inactive
EC50, αz (α2AR [7]; α2AR-Gαz): inactive
